Test results published in patent publication US10611750B2, “Tetrahydroquinoline compositions as bet bromodomain inhibitors” (FORMA Therapeutics, Inc., priority 2013, dated 2020).

Columns and labels:
[1] = system: acute myelocytic leukemia (AML) cell line MV4-11; assay: Oncology cell growth assay (3-day proliferation, CellTiter-Glo); format: cell-based; settings: Homo sapiens, MV4-11, 72 h, MV4-11 cells, 3000 cells/well, compounds listed under IC50 range headings, read-out: MV411 IC50 (gIC50, inhibition of proliferation)
Procedure, shortened: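 Luminescence from CellTiter-Glo served as the growth read-out after MV4-11 cells (3000/well) were cultured with compound for 72 hours. Final concentrations spanned 10 to 0.0045 μM in 3-fold steps. gIC50 values were derived by four-parameter logistic fitting relative to DMSO and cell-free controls.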

[2] = molecular target: T1, BRD4 Bromodomain 1 (BRD4 BD1) (Homo sapiens, UniProt O60885); assay: AlphaScreen binding assay, BRD4 BD1; settings: His-tagged BRD4 BD1 50 nM, biotinylated H4 (1-21) K5/8/12/16 tetra-acetylated peptide 50 nM, compounds listed under IC50 range headings
T1 construct: 44-168 and BRD4 BD2
Procedure, shortened: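 Compound dilution series were mixed with His-tagged BRD4 bromodomain and biotinylated tetra-acetylated H4 (1-21) peptide at pH 7.3 (BD1 and peptide at 50 nM, BD2 and peptide at 100 nM). Donor and acceptor beads were then added, and plates were equilibrated at least 1 h before reading. IC50 values were fitted with a four-parameter logistic model.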

SMILES | IC50 [1] [nM] | IC50 [2] [nM]
C[C@H]1CCc2c(ccc(-c3cnn4c3N(S(C)(=O)=O)CC4)c2OC2CCC2)N1C(=O)C1CC1 [I-279, ((2S)-5-cyclobutoxy-2-methyl-6-(1-(methylsulfonyl)-2,3-dihydro-1H-pyrazolo[1,5-a]imidazol-7-yl)-3,4-dihydroquinolin-1 (2H)-yl)(cyclopropyl)methanone] | > 1000 | 1000 to 10000
COC(=O)N1c2ccc(-c3csc(C4(O)CCNCC4)n3)c(OC3CCC3)c2CC[C@@H]1C [I-280, methyl (S)-5-cyclobutoxy-6-(2-(4-hydroxypiperidin-4-yl)thiazol-4-yl)-2-methyl-3,4-dihydroquinoline-1(2H)-carboxylate] | < 500 | 1000 to 10000
COC(=O)N1c2ccc(-c3csc(C4(F)CCNCC4)n3)c(OC3CCC3)c2CC[C@@H]1C [I-281, methyl (S)-5-cyclobutoxy-6-(2-(4-fluoropiperidin-4-yl)thiazol-4-yl)-2-methyl-3,4-dihydroquinoline-1(2H)-carboxylate] | 500 to 1000 | 100 to 1000
COC(=O)N1c2ccc(-c3cnn(C4CCNCC4OC)c3)c(OC3CCC3)c2CC[C@@H]1C (stereo partly drawn) [I-290, (2S)-methyl 5-cyclobutoxy-6-(1-(3-methoxypiperidin-4-yl)-1H-pyrazol-4-yl)-2-methyl-3,4-dihydroquinoline-1(2H)-carboxylate] | < 500 | 100 to 1000
COC(=O)N1c2ccc(-c3cnn(C4CCNCC4OC)c3)c(Oc3ccc(F)cc3)c2CC[C@@H]1C (stereo partly drawn) [I-291, (2S)-methyl 5-(4-fluorophenoxy)-6-(1-(3-methoxypiperidin-4-yl)-1H-pyrazol-4-yl)-2-methyl-3,4-dihydroquinoline-1(2H)-carboxylate] | < 500 | 100 to 1000
COC(=O)N1c2ccc(-c3cnn(C4CCN(C)CC4OC)c3)c(OC3CCC3)c2CC[C@@H]1C (stereo partly drawn) [I-292, (2S)-methyl 5-cyclobutoxy-6-(1-(3-methoxy-1-methylpiperidin-4-yl)-1H-pyrazol-4-yl)-2-methyl-3,4-dihydroquinoline-1 (2H)-carboxylate] | < 500 | 100 to 1000
COC(=O)N1c2ccc(-c3cnn(C4CCN(C)CC4OC)c3)c(Oc3ccc(F)cc3)c2CC[C@@H]1C (stereo partly drawn) [I-293, (2S)-methyl 5-(4-fluorophenoxy)-6-(1-(3-methoxy-1-methylpiperidin-4-yl)-1H-pyrazol-4-yl)-2-methyl-3,4-dihydroquinoline-1(2H)-carboxylate] | < 500 | 100 to 1000
C[C@H]1CCc2c(ccc(-c3cnn(C4CCCS(=O)(=O)C4)c3)c2Oc2ccccc2)N1C(=O)C1CC1 (stereo partly drawn) [I-294, 3-{4-[(2S)-1-cyclopropanecarbonyl-2-methyl-5-phenoxy-1,2,3,4-tetrahydroquinolin-6-yl]-1H-pyrazol-1-yl}-1λ^6-thiane-1,1-dione] | < 500 | 100 to 1000
C[C@H]1CCc2c(ccc(-c3cnn(C4CCCS(=O)(=O)C4)c3)c2Oc2ccc(F)cc2)N1C(=O)C1CC1 (stereo partly drawn) [I-295, 3-{4-[(2S)-1-cyclopropanecarbonyl-5-(4-fluorophenoxy)-2-methyl-1,2,3,4-tetrahydroquinolin-6-yl]-1H-pyrazol-1-yl}-1λ^6-thiane-1,1-dione] | < 500 | 100 to 1000
COC(=O)N1c2ccc(-c3cnn(C4CCNC(=O)C4)c3)c(OC3CCC3)c2CC[C@@H]1C (stereo partly drawn) [I-296, (2S)-methyl 5-cyclobutoxy-2-methyl-6-(1-(2-oxopiperidin-4-yl)-1H-pyrazol-4-yl)-3,4-dihydroquinoline-1(2H)-carboxylate] | < 500 | 100 to 1000
COC(=O)N1c2ccc(-c3cnn(C4CCNC(=O)C4)c3)c(Oc3ccc(F)cc3)c2CC[C@@H]1C (stereo partly drawn) [I-297, (2S)-methyl 5-(4-fluorophenoxy)-2-methyl-6-(1-(2-oxopiperidin-4-yl)-1H-pyrazol-4-yl)-3,4-dihydroquinoline-1(2H)-carboxylate] | < 500 | 100 to 1000
COC(=O)N1c2ccc(-c3cnn(C4CNC4C)c3)c(Oc3ccc(F)cc3)c2CC[C@@H]1C (stereo partly drawn) [I-298, methyl (2S)-5-(4-fluorophenoxy)-2-methyl-6-(1-(2-methylazetidin-3-yl)-1H-pyrazol-4-yl)-3,4-dihydroquinoline-1(2H)-carboxylate] | < 500 | 100 to 1000
COC(=O)N1c2ccc(-c3cnn(C4CNC4C)c3)c(OC3CCC3)c2CC[C@@H]1C (stereo partly drawn) [I-299, methyl (2S)-5-cyclobutoxy-2-methyl-6-(1-(2-methylazetidin-3-yl)-1H-pyrazol-4-yl)-3,4-dihydroquinoline-1(2H)-carboxylate] | 500 to 1000 | 1000 to 10000
C[C@H]1CCc2c(ccc(-c3cnn(C4CC4)c3NS(C)(=O)=O)c2OC2CCC2)N1C(=O)C1CC1 [I-300, N-(4-((2S)-5-cyclobutoxy-1-(cyclopropanecarbonyl)-2-methyl-1,2,3,4-tetrahydroquinolin-6-yl)-1-cyclopropyl-1H-pyrazol-5-yl)methanesulfonamide] | > 1000 | ≥ 10000
CC(=O)Nc1c(-c2ccc3c(c2OC2CCC2)CC[C@H](C)N3C(=O)C2CC2)cnn1C1CC1 [I-301, N-(4-((2S)-5-cyclobutoxy-1-(cyclopropanecarbonyl)-2-methyl-1,2,3,4-tetrahydroquinolin-6-yl)-1-cyclopropyl-1H-pyrazol-5-yl)acetamide] | > 1000 | 1000 to 10000
COC(=O)N1c2ccc(-c3cnn(C4CC(O)C4)c3)c(OC3CCC3)c2CC[C@@H]1C (stereo partly drawn) [I-302, (S)-methyl 5-cyclobutoxy-6-(1-(3-hydroxycyclobutyl)-1H-pyrazol-4-yl)-2-methyl-3,4-dihydroquinoline-1(2H)-carboxylate] | < 500 | 100 to 1000
COC(=O)N1c2ccc(-c3c[nH]c(C4CCNCC4)n3)c(OC3CCC3)c2CC[C@@H]1C [I-303, methyl (S)-5-cyclobutoxy-2-methyl-6-(2-(piperidin-4-yl)-1H-imidazol-4-yl)-3,4-dihydroquinoline-1(2H)-carboxylate] | < 500 | 100 to 1000
COC(=O)N1c2ccc(-c3cn(C)c(C4CCNCC4)n3)c(OC3CCC3)c2CC[C@@H]1C [I-304, methyl (S)-5-cyclobutoxy-2-methyl-6-(1-methyl-2-(piperidin-4-yl)-1H-imidazol-4-yl)-3,4-dihydroquinoline-1(2H)-carboxylate] | > 1000 | ≥ 10000
C[C@H]1CCc2c(ccc(-c3ccn(C4CCNCC4)n3)c2OC2CCC2)N1C(=O)C1CC1 [I-305, (S)-(5-cyclobutoxy-2-methyl-6-(1-(piperidin-4-yl)-1H-pyrazol-3-yl)-3,4-dihydroquinolin-1 (2H)-yl)(cyclopropyl)methanone] | < 500 | 1000 to 10000
C[C@H]1CCc2c(ccc(-c3ccnn3C3CCNCC3)c2OC2CCC2)N1C(=O)C1CC1 [I-306, ((2S)-5-cyclobutoxy-2-methyl-6-(1-(piperidin-4-yl)-1H-pyrazol-5-yl)-3,4-dihydroquinolin-1(2H)-yl)(cyclopropyl)methanone] | > 1000 | ≥ 10000
C[C@H]1CCc2c(ccc(-c3ccn(C4CCNCC4)n3)c2Oc2ccccc2)N1C(=O)C1CC1 [I-307, (S)-cyclopropyl(2-methyl-5-phenoxy-6-(1-(piperidin-4-yl)-1H-pyrazol-3-yl)-3,4-dihydroquinolin-1(2H)-yl)methanone] | < 500 | 100 to 1000
C[C@H]1CCc2c(ccc(-c3ccnn3C3CCNCC3)c2Oc2ccccc2)N1C(=O)C1CC1 [I-308, cyclopropyl((2S)-2-methyl-5-phenoxy-6-(1-(piperidin-4-yl)-1H-pyrazol-5-yl)-3,4-dihydroquinolin-1(2H)-yl)methanone] | > 1000 | ≥ 10000
C[C@H]1CCc2c(ccc(-c3cnn(C4CCNCC4)n3)c2OC2CCC2)N1C(=O)C1CC1 [I-309, (S)-(5-cyclobutoxy-2-methyl-6-(2-(piperidin-4-yl)-2H-1,2,3-triazol-4-yl)-3,4-dihydroquinolin-1(2H)-yl)(cyclopropyl)methanone] | < 500 | 1000 to 10000
C[C@H]1CCc2c(ccc(-c3cn(C4CCNCC4)nn3)c2OC2CCC2)N1C(=O)C1CC1 [I-310, (S)-(5-cyclobutoxy-2-methyl-6-(1-(piperidin-4-yl)-1H-1,2,3-triazol-4-yl)-3,4-dihydroquinolin-1(2H)-yl)(cyclopropyl)methanone] | < 500 | 100 to 1000
C[C@H]1CCc2c(ccc(-c3cnn(C4CCNCC4)n3)c2Oc2ccccc2)N1C(=O)C1CC1 [I-311, (S)-cyclopropyl(2-methyl-5-phenoxy-6-(2-(piperidin-4-yl)-2H-1,2,3-triazol-4-yl)-3,4-dihydroquinolin-1(2H)-yl)methanone] | < 500 | < 100
C[C@H]1CCc2c(ccc(-c3cn(C4CCNCC4)nn3)c2Oc2ccccc2)N1C(=O)C1CC1 [I-312, (S)-cyclopropyl(2-methyl-5-phenoxy-6-(1-(piperidin-4-yl)-1H-1,2,3-triazol-4-yl)-3,4-dihydroquinolin-1(2H)-yl)methanone] | < 500 | < 100
COC(=O)N1c2ccc(-c3csc(C4CNC4)n3)c(OC3CCC3)c2CC[C@@H]1C [I-313, (S)-methyl 6-(2-(azetidin-3-yl)thiazol-4-yl)-5-cyclobutoxy-2-methyl-3,4-dihydroquinoline-1(2H)-carboxylate] | > 1000 | 100 to 1000
COC(=O)N1c2ccc(-c3csc(C4(O)CNC4)n3)c(OC3CCC3)c2CC[C@@H]1C [I-314, (S)-methyl-5-cyclobutoxy-6-(2-(3-hydroxyazetidin-3-yl)thiazol-4-yl)-2-methyl-3,4-dihydroquinoline-1(2H)-carboxylate] | > 1000 | 1000 to 10000
